The structures appear in SMILES notation. pKd: −log10 of the molar value.

We go through 1 molecule from US11992493B1, “Use of compound or pharmaceutical derivative thereof in inhibiting CaMK2G protein activity” (priority 2022, dated 2024).

The subject of experiment [1] is IL17A^+ cells in dermal γδT subsets. Put plainly: Flow cytometry of skin lymphocytes of IMQ-induced mice. It is filed as in vivo, mouse. The settings on record: 5 mg/kg; compared with IMQ-induced mice without T2533. As for the experimental part: (§1) DMSO is used to dissolve T2533 powder, the T2533 powder is weighed according to different dosage, and then diluted with β-cyclodextrin, the final concentration of DMSO is not more than 5%. The dose gradient of T2533 is 0 mg/kg, 2.5 mg/kg, 5 mg/kg, and 10 mg/kg. Each mouse is calculated as 20 grams (g), and each mouse needs to be administered 0 mg, 0.05 mg, 0.1 mg, and 0.2 mg per day.
Seven-week-old C57/BL6 mice are bred and modeled in SPF-level environment. […]
In each group of 6 mice, the hair on the back of the mice is shaved to make the exposed skin reach 4 square centimeters. […] The skin of mice is scored every day, the mice are euthanized on Day 4, and the skin tissues are taken for a series of detection.
(§2) The skin lymphocytes of mice in the above groups are isolated and detected by flow cytometry (i.e., the detection of the proportion of IL17A^+ cells in dermal γδT subsets, the IL17A^+ cells are main effector cells mediated by the CaMK2γ pathway of psoriasis and can secrete a large number of IL-17 cytokines to aggravate psoriasis). […] Quantitative PCR is performed on known proinflammatory genes closely related to psoriasis, including Il17a, Il17f, Il22, Tnfa and Il23a.
(In general: In flow cytometry, cells or beads pass a laser one at a time.)

For experiment [2], the system named is Il17a, Il17f, Il22, Tnfa and Il23a. Put plainly: Quantitative PCR of proinflammatory genes in skin of IMQ-induced mice. The format is in vivo, mouse. Particulars: qPCR. As for the experimental part: as §1
(§3) Seven-week-old C57/BL6 mice are bred and modeled in SPF-level environment. The experimental groups are as follows: (1) applying the skin with imiquimod (IMQ) and 0 mg/kg T2533; (2) applying the skin with IMQ and 2.5 mg/kg T2533; (3) applying the skin with IMQ and 5 mg/kg T2533; (4) applying the skin with IMQ and 10 mg/kg T2533; (5) applying the skin with Vaseline® and 0 mg/kg T2533; (6) applying the skin with Vaseline® and 2.5 mg/kg T2533; (7) applying the skin with Vaseline® and 5 mg/kg T2533; and (8) applying the skin with Vaseline® and 10 mg/kg T2533.
(§4) In each group of 6 mice, the hair on the back of the mice is shaved to make the exposed skin reach 4 square centimeters. The start date of the experiment is set as Day−2, and the end date is set as Day4. From Day−2 to Day3, 200 μL of liquid drug is taken in the morning and evening every day and evenly smeared on the skin of mice until it is absorbed. From Day 0 to Day 3, 62.5 mg IMQ is applied to each mouse at noon of every day. The skin of mice is scored every day, the mice are euthanized on Day 4, and the skin tissues are taken for a series of detection.
as §2
Background: Quantitative PCR measures a nucleic acid by following its amplification.

Experiment [3] concerns IMQ-induced mice. As to the kind of experiment: IMQ-induced psoriatic mouse model: PASI score, erythema, scaling, skin thickness, skin phenotype. The format is in vivo. The settings on record: smeared on skin, Day−2 to Day3. As for the experimental part: as §1, §3, §4
The PASI score results and the corresponding score results of erythema, scaling, and skin thickness of the above IMQ modelled mice are shown in FIG. 9, FIG. 10, FIG. 11, and FIG. 12, respectively. The skin phenotypes and skin pathological phenotypes are shown in FIG. 13 and FIG. 14, respectively.

The target in experiment [4] is T1, human-derived CaMK2γ protein (Homo sapiens, UniProt Q13555).
T1 construct: a pET28A vector is firstly used to express and purify the human-derived full-length CaMK2γ protein; made in house; host or cells: pET28A vector
Put plainly: SPR (Biacore, CM5 chip amine-coupling) affinity to human-derived CaMK2γ protein. Particulars: human-derived full-length CaMK2γ protein, read-out: binding constant. As for the experimental part: In the embodiment of the disclosure, the affinity between T2533 and human-derived CaMK2γ protein are detected. Specifically, a pET28A vector is firstly used to express and purify the human-derived full-length CaMK2γ protein. Subsequently, the affinity is determined by the surface plasmon resonance (SPR) method of Biacore™ using a CM5 chip amine-coupling.
Background: In SPR one partner is held on a chip, and binding of the other changes the refractive index at the surface.

The target in experiment [5] is T2, CaMK2γ (Homo sapiens, UniProt Q13555).
T2 construct: purchased Promega #V9201
As to the kind of experiment: ADP-Glo Kinase Assay + CaMK2γ Kinase Enzyme System (Promega #V9201). It is filed as biochemical. The settings on record: inhibitor final concentration 10 μM, compared with positive control, p<0.0001. As to the method: The kinase activity (%) of 130 compounds screened above are detected by ADP-Glo™ Kinase Assay+CaMK2γ Kinase Enzyme System (Promega #V9201), and the evaluation standard is kinase activity (%).
The kinase activity (%) of each well is calculated by the above method.
In the embodiment of the disclosure, the inhibition of T2533 on CaMK2γ protein activity is detected by ADP-Glo™ Kinase Assay+CaMK2 γ Kinase Enzyme System (Promega #V9201), and the specific experimental steps and settings are as follows.
(1) well setting: 2 blank wells, 2 normal reaction wells, 2 dimethyl sulfoxide (DMSO) control wells, 40 inhibitor wells with 2 plex wells for each inhibitor and 20 inhibitors. There are 46 wells in total.
(2) preparation of a kinase reaction reagent: • (a) preparation of 200 […] 4× Kinase Buffer is as shown in Table 5 below. 175 μL of the 4× Kinase Buffer is required for a single experiment, that is, 2.5*20+62.5+62.5=175 μL. The rest is prepared into 1× Kinase Buffer and used as blank well.
• (b) preparation of 10 μL 5× inhibitor solution (final concentration is 10 micromoles per liter abbreviated μM), and 2.5 μL/well. Specifically, the inhibitor is 10 millimoles per liter abbreviated mM, diluted to 1 mM with DMSO in a ratio of 1:9; the preparation method of DMSO is the same as that of inhibitor, which is used as the DMSO control well, as shown in Table 6 below. […]

Experiment [6] deals with T3, mouse-derived CaMK2γ protein (Mus musculus, UniProt Q923T9).
T3 construct: a pET28A vector is firstly used to express and purify the mouse-derived full-length CaMK2γ protein; made in house; host or cells: pET28A vector
As to the kind of experiment: SPR (Biacore, CM5 chip amine-coupling) affinity to mouse-derived CaMK2γ protein. Particulars: mouse-derived full-length CaMK2γ protein, read-out: binding constant. As for the experimental part: In the embodiment of the disclosure, the affinity between T2533 and mouse-derived CaMK2γ protein are detected. Specifically, a pET28A vector is firstly used to express and purify the mouse-derived full-length CaMK2γ protein. Subsequently, the affinity is determined by the SPR method of Biacore™ using a CM5 chip amine-coupling.

T2 sequence (Q13555 whole entry): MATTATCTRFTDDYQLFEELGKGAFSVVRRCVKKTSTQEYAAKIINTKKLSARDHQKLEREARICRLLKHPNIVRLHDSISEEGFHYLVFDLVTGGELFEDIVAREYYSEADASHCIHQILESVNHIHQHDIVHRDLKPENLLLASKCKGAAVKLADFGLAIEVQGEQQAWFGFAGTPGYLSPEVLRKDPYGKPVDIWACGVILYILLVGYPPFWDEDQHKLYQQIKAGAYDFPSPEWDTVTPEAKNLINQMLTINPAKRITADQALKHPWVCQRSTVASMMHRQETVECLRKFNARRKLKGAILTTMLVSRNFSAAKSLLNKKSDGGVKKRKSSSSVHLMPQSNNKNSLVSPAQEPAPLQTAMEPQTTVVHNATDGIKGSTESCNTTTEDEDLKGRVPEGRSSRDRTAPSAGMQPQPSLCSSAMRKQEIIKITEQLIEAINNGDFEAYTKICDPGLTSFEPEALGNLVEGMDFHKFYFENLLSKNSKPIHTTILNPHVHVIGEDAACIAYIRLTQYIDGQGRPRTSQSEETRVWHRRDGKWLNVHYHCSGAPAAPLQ
T1 sequence (Q13555 whole entry): as above
T3 sequence (Q923T9 whole entry): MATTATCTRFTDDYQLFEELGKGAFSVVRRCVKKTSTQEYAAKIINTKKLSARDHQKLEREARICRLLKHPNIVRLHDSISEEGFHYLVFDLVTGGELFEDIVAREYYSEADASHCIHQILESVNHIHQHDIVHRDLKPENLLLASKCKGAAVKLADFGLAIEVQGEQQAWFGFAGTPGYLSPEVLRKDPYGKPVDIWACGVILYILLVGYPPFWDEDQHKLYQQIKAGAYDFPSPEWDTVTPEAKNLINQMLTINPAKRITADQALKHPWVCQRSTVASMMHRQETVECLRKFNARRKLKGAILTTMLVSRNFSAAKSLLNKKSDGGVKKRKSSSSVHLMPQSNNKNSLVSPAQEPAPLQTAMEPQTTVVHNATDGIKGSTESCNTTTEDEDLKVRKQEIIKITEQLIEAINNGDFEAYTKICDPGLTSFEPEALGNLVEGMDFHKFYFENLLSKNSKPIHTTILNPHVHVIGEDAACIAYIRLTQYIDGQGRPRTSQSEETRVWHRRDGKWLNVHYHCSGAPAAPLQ

With `CN1CCC(=C2c3ccccc3CCn3c(C=O)cnc32)CC1` [T2533, Alcaftadine], the “proportion of IL-17A^+ cells in dermal γδT subsets” value in experiment [1] is recorded as “significantly reduced”. Also, the “expression of Il17a in the skin” value in experiment [2] (2.5 mg/kg) and in experiment [2] (5 mg/kg) was “decrease significantly” each time. Besides, the “expression of Il17f in the skin” value in experiment [2] (2.5 mg/kg) and in experiment [2] (5 mg/kg) was “decrease significantly” in each case. Moreover, the “expression of Il22 in the skin” value in experiment [2] (2.5 mg/kg) and in experiment [2] (5 mg/kg) was “unchanged” in each case. Besides, the “expression of Il23a in the skin” value is “unchanged” in experiment [2] (2.5 mg/kg) and “decrease significantly” in experiment [2] (5 mg/kg). Also, the “expression of Tnfa in the skin” value is reported as “unchanged” in experiment [2] (2.5 mg/kg) and “decrease significantly” in experiment [2] (5 mg/kg). For the same molecule, the “inflammatory phenotype of IMQ-induced mice” value in experiment [3] (2.5 mg/kg) is given as “reduces the inflammatory phenotype”; in experiment [3] (5 mg/kg) it was “most significant”; in experiment [3] (10 mg/kg) it was “reduces the inflammatory phenotype”. Moreover, the pKd in experiment [4] is 4.60; in experiment [6] it was 4.16. The “inhibition effect on kinase activity (%)” value in experiment [5] is “effectively reduce the expression of CaMK2γ protein”; in experiment [5] (listed as compound I), “most significant inhibition effect”.
